PubChem BioAssay AID192 (DTP/NCI, 2004)
“And” between values parts separate entries of the source, which are not always exact repeats. Equal values may be shown once. Inconclusive results and toxic doses are left out. Peptide text beside a SMILES is read from it. * marks the point of attachment. Bn = c1ccc(C*)cc1

Tested on: BDF1 mice, B16 melanoma ip, median survival T/C
Assay: NCI In Vivo Anticancer Drug Screen. Data for tumor model B16 Melanoma (intraperitoneal) in B6D2F1 (BDF1) mice
Settings: endpoint: median survival time, higher = longer survival
How it was run: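 Values are ratios of treated (T) to vehicle-control (C) measurements of survival or tumor size in tumor-bearing mice.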

[1] = dose: 100.0 mg/kg/injection, schedule: Q04DX003 (ip), vehicle: Klucel (hydroxypropylcellulose) (HPC)
[2] = dose: 200.0 mg/kg/injection, schedule: Q04DX003 (ip), vehicle: Klucel (hydroxypropylcellulose) (HPC)
[3] = dose: 400.0 mg/kg/injection, schedule: Q04DX003 (ip), vehicle: Klucel (hydroxypropylcellulose) (HPC)
[4] = dose: 25.0 mg/kg/injection, schedule: Q01DX009 (ip), vehicle: Klucel (hydroxypropylcellulose) (HPC)
[5] = dose: 50.0 mg/kg/injection, schedule: Q01DX009 (ip), vehicle: Klucel (hydroxypropylcellulose) (HPC)
[6] = dose: 100.0 mg/kg/injection, schedule: Q01DX009 (ip), vehicle: Klucel (hydroxypropylcellulose) (HPC)
[7] = dose: 12.5 mg/kg/injection, schedule: Q01DX009 (ip), vehicle: saline
[8] = dose: 25.0 mg/kg/injection, schedule: Q01DX009 (ip), vehicle: saline
[9] = dose: 50.0 mg/kg/injection, schedule: Q01DX009 (ip), vehicle: saline
[10] = dose: 12.5 mg/kg/injection, schedule: Q01DX009 (ip), vehicle: Klucel (hydroxypropylcellulose) (HPC)
[11] = dose: 100.0 mg/kg/injection, schedule: Q01DX009 (ip), vehicle: saline with Tween-80
[12] = dose: 200.0 mg/kg/injection, schedule: Q01DX009 (ip), vehicle: saline with Tween-80
[13] = dose: 400.0 mg/kg/injection, schedule: Q01DX009 (ip), vehicle: saline with Tween-80
[14] = dose: 50.0 mg/kg/injection, schedule: Q01DX009 (ip), vehicle: saline with Tween-80
[15] = dose: 200.0 mg/kg/injection, schedule: Q01DX009 (ip), vehicle: Klucel (hydroxypropylcellulose) (HPC)
[16] = dose: 400.0 mg/kg/injection, schedule: Q01DX009 (ip), vehicle: Klucel (hydroxypropylcellulose) (HPC)

For `Cc1c(N)nc([C@H](CC(N)=O)NC[C@H](N)C(N)=O)nc1C(=O)N[C@H](C(=O)N[C@H](C)[C@@H](O)CC(=O)N[C@H](C(=O)NC(O[C@@H]1O[C@@H](C)[C@@H](N)[C@@H](O)[C@H]1O)C(O)c1nc(-c2nc(C(=O)NCCCCN)cs2)cs1)[C@@H](C)O)[C@@H](O[C@@H]1O[C@@H](CO)[C@@H](O)[C@H](O)[C@@H]1O[C@H]1O[C@H](CO)[C@@H](O)[C@H](OC(N)=O)[C@@H]1O)c1c[nH]cn1` (some centres not stated), the T/C (dose: 0.8 mg/kg/injection, schedule: Q01DX009 (ip), vehicle: saline) was 152 % of control, the T/C (dose: 1.6 mg/kg/injection, schedule: Q01DX009 (ip), vehicle: saline) was 152 % of control and the T/C (dose: 3.2 mg/kg/injection, schedule: Q01DX009 (ip), vehicle: saline) was 150 % of control.
`CC(C)C1(C(=O)NNC(=O)CCCc2ccc(N(CCCl)CCCl)cc2)OC2(O)CCCCCN2C1=O` (configuration not stated) was tested, and the T/C (dose: 6.25 mg/kg/injection, schedule: Q04DX003 (ip), vehicle: Klucel (hydroxypropylcellulose) (HPC)) was 105 % of control, the T/C (dose: 12.5 mg/kg/injection, schedule: Q01DX009 (ip), vehicle: DMSO) was 114 % of control and the T/C (dose: 12.5 mg/kg/injection, schedule: Q04DX003 (ip), vehicle: Klucel (hydroxypropylcellulose) (HPC)) was 118 % of control. The T/C [1] was 167 % of control.
For `COc1cc2c(cc1OC)N(S(=O)(=O)c1ccc(C)cc1)CCCC2=O`, the T/C [1] was 87 % of control, the T/C [2] was 100 % of control and the T/C [3] was 92 % of control.
With `CNC(Cc1ccccc1)c1ccccc1` (configuration not stated) the T/C [4] was 105 % of control, the T/C [5] was 105 % of control and the T/C [6] was 113 % of control.
For `CN=C1CN(O)C(c2ccccc2)=c2cc(Cl)ccc2=N1`, the T/C (dose: 3.12 mg/kg/injection, schedule: Q01DX009 (ip), vehicle: saline) was 115 % of control, the T/C (dose: 6.25 mg/kg/injection, schedule: Q01DX009 (ip), vehicle: saline) was 101 % of control and 114 % of control and the T/C [7] was 92 % of control and 94 % of control and 101 % of control. For the same molecule, the T/C [8] was 100 % of control and 101 % of control, the T/C [9] was 114 % of control and 117 % of control and the T/C (dose: 100.0 mg/kg/injection, schedule: Q01DX009 (ip), vehicle: saline) was 100 % of control and 102 % of control.
For `COC(=O)C(CC(C)C)NC(=O)C(N)Cc1ccc(OCc2ccccc2)cc1` (configuration not stated) (H-Tyr(Bn)-Leu-OMe; configuration not given here), the T/C [10] was 110 % of control and the T/C [4] was 96 % of control.
With `CCCCNC(=O)Oc1ccc(OCc2ccccc2)cc1` the T/C [11] was 107 % of control, the T/C [12] was 107 % of control and the T/C [13] was 92 % of control.
`CC(=O)NC(=O)Nc1ccccc1` was tested, and the T/C [1] was 97 % of control, the T/C [2] was 95 % of control and the T/C [3] was 100 % of control.
In the case of `COc1cc(O)c2c(c1)C(=O)c1cc3c(c(O)c1C2=O)C(O)C(OC)C(C)(O)C3=O` (configuration not stated), the T/C [4] is reported as 95 % of control and the T/C [5] is reported as 88 % of control.
In the case of `COc1ccc(N=NNc2ccc(OC)cc2)cc1`, the T/C (dose: 5.0 mg/kg/injection, schedule: Q01DX009 (ip), vehicle: saline with Tween-80) is reported as 106 % of control, the T/C (dose: 6.25 mg/kg/injection, schedule: Q01DX009 (ip), vehicle: saline with Tween-80) is reported as 90 % of control and 94 % of control and the T/C (dose: 6.25 mg/kg/injection, schedule: Q04DX003 (ip), vehicle: saline with Tween-80) is reported as 97 % of control and 105 % of control. The T/C (dose: 10.0 mg/kg/injection, schedule: Q01DX009 (ip), vehicle: saline with Tween-80) was 109 % of control, the T/C (dose: 12.5 mg/kg/injection, schedule: Q01DX009 (ip), vehicle: saline with Tween-80) was 86 % of control and 94 % of control and the T/C (dose: 12.5 mg/kg/injection, schedule: Q04DX003 (ip), vehicle: saline with Tween-80) was 107 % of control and 113 % of control. For the same molecule, the T/C (dose: 16.5 mg/kg/injection, schedule: Q04DX003 (ip), vehicle: saline with Tween-80) was 95 % of control, the T/C (dose: 20.0 mg/kg/injection, schedule: Q01DX009 (ip), vehicle: saline with Tween-80) was 109 % of control and the T/C (dose: 25.0 mg/kg/injection, schedule: Q01DX009 (ip), vehicle: saline with Tween-80) was 93 % of control and 94 % of control. The T/C (dose: 25.0 mg/kg/injection, schedule: Q04DX003 (ip), vehicle: saline with Tween-80) was 100 % of control and 107 % of control, the T/C (dose: 37.5 mg/kg/injection, schedule: Q04DX003 (ip), vehicle: saline with Tween-80) was 100 % of control and the T/C (dose: 40.0 mg/kg/injection, schedule: Q01DX009 (ip), vehicle: saline with Tween-80) was 112 % of control. For the same molecule, the T/C [14] was 97 % of control and the T/C (dose: 50.0 mg/kg/injection, schedule: Q04DX003 (ip), vehicle: saline with Tween-80) was 110 % of control.
`COc1c2c(cc3c1C(Cl)N(C)CC3)OCO2` (configuration not stated) was tested, and the T/C [7] was 96 % of control, the T/C [8] was 110 % of control and the T/C [9] was 106 % of control.
For `O=C1Nc2ccccc2/C1=C\c1ccccc1O`, the T/C (dose: 1.56 mg/kg/injection, schedule: Q01DX009 (ip), vehicle: Klucel (hydroxypropylcellulose) (HPC)) was 106 % of control, the T/C (dose: 3.12 mg/kg/injection, schedule: Q01DX009 (ip), vehicle: Klucel (hydroxypropylcellulose) (HPC)) was 106 % of control and the T/C (dose: 6.25 mg/kg/injection, schedule: Q01DX009 (ip), vehicle: Klucel (hydroxypropylcellulose) (HPC)) was 91 % of control. The T/C [10] was 105 % of control and the T/C [4] was 89 % of control.
In the case of `CC1C2Cc3ccc(O)cc3C1(C)CCN2CC1CC1` (configuration not stated), the T/C [4] is reported as 100 % of control, the T/C [5] is reported as 94 % of control and the T/C [6] is reported as 95 % of control.
In the case of `CC12C=CC(CC1)C2OC(=O)c1ccccc1C(=O)O` (configuration not stated), the T/C [10] is reported as 108 % of control, the T/C [5] is reported as 94 % of control and the T/C [6] is reported as 100 % of control. The T/C [15] was 94 % of control.
In the case of `COc1ccc(C(OC2OC(n3cnc4c(=S)nc(N)[nH]c43)CC2OC(C)=O)(c2ccccc2)c2ccc(OC)cc2)cc1` (configuration not stated), the T/C [6] is reported as 90 % of control, the T/C [15] is reported as 96 % of control and the T/C [16] is reported as 93 % of control.
`CC1(C)c2ccccc2C(C)(C(Cl)(Cl)Cl)c2ccc(Cl)cc21` (configuration not stated) was tested, and the T/C [14] was 97 % of control, the T/C [11] was 103 % of control and the T/C [12] was 91 % of control. For the same molecule, the T/C [13] was 93 % of control.
For `CCc1ccc(NC(=O)Nc2ccccc2C)cc1`, the T/C [1] was 96 % of control, the T/C [2] was 96 % of control and the T/C [3] was 100 % of control.
`CCCC(=O)O.CCCC(=O)O.CCCC(=O)O.CCCC(=O)O.[Rh].[Rh]` was tested, and the T/C (dose: 46.7 micrograms/kg/injection, schedule: Q08HX018 (ip), vehicle: saline + alcohol) was 98 % of control, the T/C (dose: 77.8 micrograms/kg/injection, schedule: Q08HX018 (ip), vehicle: saline + alcohol) was 97 % of control and the T/C (dose: 93.3 micrograms/kg/injection, schedule: Q01DX009 (ip), vehicle: saline + alcohol) was 98 % of control. For the same molecule, the T/C (dose: 156.0 micrograms/kg/injection, schedule: Q01DX009 (ip), vehicle: saline + alcohol) was 98 % of control, the T/C (dose: 216.0 micrograms/kg/injection, schedule: Q08HX018 (ip), vehicle: saline + alcohol) was 88 % of control and the T/C (dose: 259.0 micrograms/kg/injection, schedule: Q01DX009 (ip), vehicle: saline + alcohol) was 102 % of control.
With `O=NN(CCCl)C(=O)NCC1CCC(CNC(=O)N(CCCl)N=O)CC1` (configuration not stated) the T/C (dose: 17.0 mg/kg/injection, schedule: Q01DX009 (ip), vehicle: saline) was 122 % of control, the T/C (dose: 33.0 mg/kg/injection, schedule: Q01DX009 (ip), vehicle: saline) was 152 % of control and the T/C (dose: 65.0 mg/kg/injection, schedule: Q01DX009 (ip), vehicle: saline) was 184 % of control. For the same molecule, the T/C (dose: 130.0 mg/kg/injection, schedule: Q01DX009 (ip), vehicle: saline) was 193 % of control.
`CCCCCCCCCCCCCCCC(C)(C)O` was tested, and the T/C [6] was 100 % of control, the T/C [15] was 100 % of control and the T/C [16] was 86 % of control.
In the case of `O=c1[nH]cnc2c1cnn2-c1ccccc1`, the T/C [6] is reported as 90 % of control, the T/C [15] is reported as 90 % of control and the T/C [16] is reported as 103 % of control.
In the case of `O=c1[nH]cc(B(O)O)c(=O)[nH]1`, the T/C (dose: 200.0 mg/kg/injection, schedule: Q01DX009 (ip), vehicle: saline) is reported as 118 % of control.
`CN(C)N=Nc1c(Cl)cc(Cl)cc1C(N)=O` was tested, and the T/C [11] was 119 % of control and the T/C [12] was 115 % of control.
`CC[C@@H](C)[C@@H]1NC(=O)C(NC(=O)C(CC(C)C)N(C)C(=O)C2CCCN2C(=O)C(C)O)C(C)OC(=O)C(Cc2ccc(OC)cc2)N(C)C(=O)C2CCCN2C(=O)C(CC(C)C)NC(=O)C(C)C(=O)C(C(C)C)OC(=O)C[C@H]1O` (some centres not stated) was tested, and the T/C (dose: 80.0 micrograms/kg/injection, schedule: Q01DX009 (ip), vehicle: clinical formulation) was 161 % of control, the T/C (dose: 160.0 micrograms/kg/injection, schedule: Q01DX009 (ip), vehicle: clinical formulation) was 160 % of control and the T/C (dose: 160.0 micrograms/kg/injection, schedule: Q01DX009 (ip), vehicle: distilled water + alcohol) was 160 % of control. For the same molecule, the T/C (dose: 320.0 micrograms/kg/injection, schedule: Q01DX009 (ip), vehicle: clinical formulation) was 153 % of control and the T/C (dose: 320.0 micrograms/kg/injection, schedule: Q01DX009 (ip), vehicle: distilled water + alcohol) was 172 % of control.
